Biological target: Mitogen-activated protein kinase kinase kinase 7 (TAK1/MAP3K7) (Homo sapiens) (UniProt O43318)
Assay: Inhibition of human TAK1 using ATP as substrate

Chain of Mitogen-activated protein kinase kinase kinase 7 (TAK1/MAP3K7) (Homo sapiens) (O43318 whole entry, looked up): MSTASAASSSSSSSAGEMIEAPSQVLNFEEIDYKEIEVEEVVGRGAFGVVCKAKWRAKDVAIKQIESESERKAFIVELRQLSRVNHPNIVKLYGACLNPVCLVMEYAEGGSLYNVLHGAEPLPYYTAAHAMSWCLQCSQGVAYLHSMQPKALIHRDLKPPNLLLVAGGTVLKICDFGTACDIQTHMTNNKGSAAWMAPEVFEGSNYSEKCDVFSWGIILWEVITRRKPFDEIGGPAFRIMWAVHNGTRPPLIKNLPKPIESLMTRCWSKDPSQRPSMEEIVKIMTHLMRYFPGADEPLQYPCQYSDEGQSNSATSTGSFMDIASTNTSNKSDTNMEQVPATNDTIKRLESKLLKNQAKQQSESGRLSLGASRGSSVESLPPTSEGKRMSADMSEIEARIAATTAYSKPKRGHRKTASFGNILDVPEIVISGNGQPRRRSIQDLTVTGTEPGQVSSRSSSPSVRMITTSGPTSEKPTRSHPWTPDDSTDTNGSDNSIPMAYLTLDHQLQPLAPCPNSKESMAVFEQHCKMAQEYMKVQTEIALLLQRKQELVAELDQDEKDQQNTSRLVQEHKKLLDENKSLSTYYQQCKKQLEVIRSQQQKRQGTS

- IC50: 0.014 µM
Structure (SMILES): CC(C)Cn1c2ccc(Nc3ncccn3)cc2c2c3c(c4c(c21)CCc1nn(C)cc1-4)C(=O)NC3 [CEP-11981]

Reference: BindingDB's records for doi:10.1021/jm201449n (Cephalon, 2012)
